Laboratory results taken from patent publication US20130324576A1, “THERAPEUTIC COMPOUNDS” (Takeda Pharmaceutical Company Limited, priority 2012, published 2013).

Biological target: T1, human PKR1 receptors (Homo sapiens, UniProt Q8TCW9)
T1 construct: expressed in transfected cells; host or cells: RBL2H3 cells (rat basophilic leukaemia line) expressing human PKR1
Test: PKR1 antagonist assay: block of PK1-mediated intracellular calcium release (FLIPR Tetra, Calcium 5 dye)
Type: cell-based
Settings: RBL2H3 cells expressing human PKR1; 10 min pre-incubation, stimulation with PK1 at EC80; calcium fluorescence
Description: Prokineticin receptor 1 (PKR1) antagonists may be functionally assessed by measurement of change in intracellular calcium levels induced by Gq mediated increase in inositol triphosphate (IP3) levels. The ability of a compound to block the intracellular release of calcium mediated by PK1 in RBL2H3 cells expressing human PKR1 receptors is determined as a measure of the compound's antagonist activity in vitro.
Approximately 10,000 cells per assay well are seeded in normal culture medium in a 384 well plate (Corning). Twenty-four hours after seeding, the cells are loaded with a calcium sensitive fluorescent dye by replacing the culture medium with assay buffer (1× Hanks buffered saline, 25 mM HEPES, 0.1% w/v fatty acid free BSA (bovine serum albumin), pH 7.4) containing 1 mM probenecid and 1× Calcium 5 Reagent (Molecular Devices). Cells are incubated at 37° C. for 1 hour to allow for dye uptake.
To test for antagonist activity, test compounds at a final concentration range between 0.32 nM-10 μM (diluted in assay buffer) are added to the assay wells and allowed to incubate for 10 minutes prior to stimulation with PK1. After incubation with test compounds the assay plate is placed in a FLIPR Tetra (Molecular Devices) and PK1 (diluted in assay buffer) is added at the determined EC80 concentration (final). Ligand-dependent changes in intracellular calcium levels are determined by measuring changes in fluorescence of the dye at […] following excitation at 485 nm.

T1 sequence (Q8TCW9 whole entry): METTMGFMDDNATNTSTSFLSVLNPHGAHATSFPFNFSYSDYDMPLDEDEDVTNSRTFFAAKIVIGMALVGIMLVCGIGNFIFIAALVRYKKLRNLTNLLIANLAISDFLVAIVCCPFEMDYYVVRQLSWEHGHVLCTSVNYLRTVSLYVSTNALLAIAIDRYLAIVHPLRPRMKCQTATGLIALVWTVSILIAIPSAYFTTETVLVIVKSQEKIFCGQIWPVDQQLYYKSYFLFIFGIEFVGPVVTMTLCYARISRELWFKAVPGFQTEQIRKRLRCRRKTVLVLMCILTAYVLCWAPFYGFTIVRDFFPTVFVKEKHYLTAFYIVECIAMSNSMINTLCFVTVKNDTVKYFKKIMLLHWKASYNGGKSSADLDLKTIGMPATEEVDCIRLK

IC50 [µM]	Compound
6.98	Cc1n[nH]c(C)c1S(=O)(=O)N1CCC(O)(Cc2ccc(Cl)cc2F)CC1 [Example 75, 4-(4-Chloro-2-fluorobenzyl)-1-((3,5-dimethyl-1H-pyrazol-4-yl)sulfonyl)piperidin-4-ol]
3.73	Cc1n[nH]c(C)c1S(=O)(=O)N1CCC(Oc2ccccc2F)CC1 [Example 76, 1-((3,5-Dimethyl-1H-pyrazol-4-yl)sulfonyl)-4-(2-fluorophenoxy)piperidine]
3.19	Cc1nn(C)c(C)c1S(=O)(=O)N1CCC(Oc2ncc(Cl)cc2F)CC1 [Example 77, 5-Chloro-3-fluoro-2-((1-((1,3,5-trimethyl-1H-pyrazol-4-yl)sulfonyl)piperidin-4-yl)oxy)pyridine]
0.07	COc1cc(Cl)ccc1CC1CCN(S(=O)(=O)c2c(C)n[nH]c2C)CC1 [Example 78, 4-(4-Chloro-2-methoxybenzyl)-1-((3,5-dimethyl-1H-pyrazol-4-yl)sulfonyl)piperidine]
0.05	COc1cc(Cl)ccc1CC1CCN(S(=O)(=O)c2c(C)nn(C)c2C)CC1 [Example 79, 4-(4-Chloro-2-methoxybenzyl)-1-((1,3,5-trimethyl-1H-pyrazol-4-yl)sulfonyl)piperidine]
0.81	Cc1n[nH]c(C)c1S(=O)(=O)N1CCC(F)(Cc2ccc(Cl)cc2F)CC1 [Example 80, 4-(4-Chloro-2-fluorobenzyl)-1-((3,5-dimethyl-1H-pyrazol-4-yl)sulfonyl)-4-fluoropiperidine]
0.67	Cc1nn(C)c(C)c1S(=O)(=O)N1CCC(F)(Cc2ccc(Cl)cc2F)CC1 [Example 81, 4-(4-Chloro-2-fluorobenzyl)-4-fluoro-1-((1,3,5-trimethyl-1H-pyrazol-4-yl)sulfonyl)piperidine]
1.02	Cc1n[nH]c(C)c1S(=O)(=O)N1CCC(Cc2ccc(Cl)cc2F)CC1 [Example 82, 4-(4-Chloro-2-fluorobenzyl)-1-((3,5-dimethyl-1H-pyrazol-4-yl)sulfonyl)piperidine]
0.73	Cc1nn(C)c(C)c1S(=O)(=O)N1CCC(Cc2ccc(Cl)cc2F)CC1 [Example 83, 4-(4-Chloro-2-fluorobenzyl)-1-((1,3,5-trimethyl-1H-pyrazol-4-yl)sulfonyl)piperidine]
0.72	COc1cc(Cl)cnc1OC1CCN(S(=O)(=O)c2c(C)nn(C)c2C)CC1 [Example 84, 5-Chloro-3-methoxy-2-((1-((1,3,5-trimethyl-1H-pyrazol-4-yl)sulfonyl)piperidin-4-yl)oxy)pyridine]
1.23	COc1cc(Cl)cnc1OC1CCN(S(=O)(=O)c2c(C)n[nH]c2C)CC1 [Example 85, 5-Chloro-2-((1-((3,5-dimethyl-1H-pyrazol-4-yl)sulfonyl)piperidin-4-yl)oxy)-3-methoxypyridine]
4.6	COc1cc(Cl)ccc1CC1(OC)CCN(S(=O)(=O)c2c(C)n[nH]c2C)CC1 [Example 86, 4-(4-Chloro-2-methoxybenzyl)-1-((3,5-dimethyl-1H-pyrazol-4-yl)sulfonyl)-4-methoxypiperidine]
5.88	COc1cc(Cl)ccc1CC1(OC)CCN(S(=O)(=O)c2c(C)nn(C)c2C)CC1 [Example 87, 4-(4-Chloro-2-methoxybenzyl)-4-methoxy-1-((1,3,5-trimethyl-1H-pyrazol-4-yl)sulfonyl)piperidine]
0.2	COc1cc(Cl)ccc1CC1(O)CCN(S(=O)(=O)c2c(C)nn(C)c2C)CC1 [Example 88, 4-(4-Chloro-2-methoxybenzyl)-1-((1,3,5-trimethyl-1H-pyrazol-4-yl)sulfonyl)piperidin-4-ol]
0.41	COc1cc(Cl)ccc1CC1(O)CCN(S(=O)(=O)c2c(C)n[nH]c2C)CC1 [Example 89, 4-(4-Chloro-2-methoxybenzyl)-1-((3,5-dimethyl-1H-pyrazol-4-yl)sulfonyl)piperidin-4-ol]
0.17	COc1cc(Cl)ccc1CC1(F)CCN(S(=O)(=O)c2c(C)n[nH]c2C)CC1 [Example 90, 4-(4-Chloro-2-methoxybenzyl)-1-((3,5-dimethyl-1H-pyrazol-4-yl)sulfonyl)-4-fluoropiperidine]

IC50 [µM]	Compound
0.14	COc1cc(Cl)ccc1CC1(F)CCN(S(=O)(=O)c2c(C)nn(C)c2C)CC1 [Example 91, 4-(4-Chloro-2-methoxybenzyl)-4-fluoro-1-((1,3,5-trimethyl-1H-pyrazol-4-yl)sulfonyl)piperidine]
0.61	Cc1n[nH]c(C)c1S(=O)(=O)N1CCC(C(C#N)c2ccc(Cl)cc2)CC1 (centres unmarked) [Example 93, 2-(4-Chlorophenyl)-2-(1-((3,5-dimethyl-1H-pyrazol-4-yl)sulfonyl)piperidin-4-yl)acetonitrile]
1.74	Cc1n[nH]c(C)c1S(=O)(=O)N1CCC(C(O)c2ccc(Cl)cc2)CC1 (centres unmarked) [Example 94]
0.71	Cc1nn(C)c(C)c1S(=O)(=O)N1CCC(C(O)c2ccc(Cl)cc2)CC1 (centres unmarked) [Example 95, (4-Chlorophenyl)(1-((1,3,5-trimethyl-1H-pyrazol-4-yl)sulfonyl)piperidin-4-yl)methanol]
0.08	COC(c1ccc(Cl)cc1)C1CCN(S(=O)(=O)c2c(C)n[nH]c2C)CC1 (centres unmarked) [Example 96, 4-((4-Chlorophenyl)(methoxy)methyl)-1-((3,5-dimethyl-1H-pyrazol-4-yl)sulfonyl)piperidine]
0.06	COC(c1ccc(Cl)cc1)C1CCN(S(=O)(=O)c2c(C)nn(C)c2C)CC1 (centres unmarked) [Example 99, 4-((4-Chlorophenyl)(methoxy)methyl)-1-((1,3,5-trimethyl-1H-pyrazol-4-yl)sulfonyl)piperidine]
9.42	Cc1n[nH]c(C)c1S(=O)(=O)N1CCC(C(CO)c2ccc(Cl)cc2)CC1 (centres unmarked) [Example 100, 2-(4-Chlorophenyl)-2-(1-((3,5-dimethyl-1H-pyrazol-4-yl)sulfonyl)piperidin-4-yl)ethanol]
2.38	Cc1n[nH]c(C)c1S(=O)(=O)N1CCC(C(C)(O)c2ccc(Cl)cc2)CC1 (centres unmarked) [Example 101, 1-(4-Chlorophenyl)-1-(1-((3,5-dimethyl-1H-pyrazol-4-yl)sulfonyl)piperidin-4-yl)ethanol]
0.47	Cc1n[nH]c(C)c1S(=O)(=O)N1CCC(C(C)c2ccc(Cl)cc2)CC1 (centres unmarked) [Example 102, 4-(1-(4-Chlorophenyl)ethyl)-1-((3,5-dimethyl-1H-pyrazol-4-yl)sulfonyl)piperidine]
1.76	Cc1n[nH]c(C)c1S(=O)(=O)N1CCC(Nc2ccc(Cl)cc2)CC1 [Example 103, N-(4-Chlorophenyl)-1-((3,5-dimethyl-1H-pyrazol-4-yl)sulfonyl)piperidin-4-amine]
0.72	CCOC(c1ccc(Cl)cc1)C1CCN(S(=O)(=O)c2c(C)n[nH]c2C)CC1 (centres unmarked) [Example 104, 4-((4-Chlorophenyl)(ethoxy)methyl)-1-((3,5-dimethyl-1H-pyrazol-4-yl)sulfonyl)piperidine]
0.41	Cc1n[nH]c(C)c1S(=O)(=O)N1CCC(C(F)c2ccc(Cl)cc2)CC1 (centres unmarked) [Example 105, 4-((4-Chlorophenyl)fluoromethyl)-1-((3,5-dimethyl-1H-pyrazol-4-yl)sulfonyl)piperidine]
1.64	Cc1n[nH]c(C)c1S(=O)(=O)N1CCC(O)(Cc2ccc(Cl)cc2)CC1 [Example 108, 4-(4-Chlorobenzyl)-1-((3,5-dimethyl-1H-pyrazol-4-yl)sulfonyl)piperidin-4-ol]
1.86	COCC(c1ccc(Cl)cc1)C1CCN(S(=O)(=O)c2c(C)n[nH]c2C)CC1 (centres unmarked) [Example 109, 4-(1-(4-Chlorophenyl)-2-methoxyethyl)-1-((3,5-dimethyl-1H-pyrazol-4-yl)sulfonyl)piperidine]
3.01	COC(c1ccccc1)C1CCN(S(=O)(=O)c2c(C)n[nH]c2C)CC1 (centres unmarked) [Example 110, 1-((3,5-Dimethyl-1H-pyrazol-4-yl)sulfonyl)-4-(methoxy(phenyl)methyl)piperidine]
0.34	Cc1n[nH]c(C)c1S(=O)(=O)N1CCC(C(c2ccc(Cl)cc2)C(F)F)CC1 (centres unmarked) [Example 111, 4-(1-(4-Chlorophenyl)-2,2-difluoroethyl)-1-((3,5-dimethyl-1H-pyrazol-4-yl)sulfonyl)piperidine]
